Laboratory results from patent US9714250B2, “Crystalline forms of temozolomide and the method for preparing same” (Jiangsu Tasly Diyi Pharmaceutical Co., Ltd., priority 2013, dated 2017).

Assay: High temperature test (stability)
Assay type: physicochemical
Settings: for Appearance and color / Content / Drying loss / Related substances: 60° C. incubator; for Related substances: HPLC; for Stability in the high-temperature test (conclusion): 60° C., 10 days
Experimental: In the following test, related substances were determined as follows: HPLC method was used and chromatographic conditions were as follows: C18 column using octadecylsilane bonded silica gel as the filler, isocratic elution using methanol: 0.5% glacial acetic acid solution (10:90) as the mobile phase, and detection wavelength was at 254 nm.
Crystalline form A of Temozolomide (Form A0 prepared by the method of EXAMPLE 1) was placed in 60° C. incubator, sampled and determined on the 5th and 10th day.
Crystalline Form B of Temozolomide (Form B0 prepared by the method of EXAMPLE 6) was placed in 60° C. incubator, sampled and determined on the 5th and 10th day.
Crystalline Form C of Temozolomide (Form C prepared by the method of EXAMPLE 14) was placed in 60° C. incubator, sampled and determined on the 5th and 10th day.

Appearance and color (0th day) | Content (0th day) [%] | Drying loss (0th day) [%] | Related substances (0th day) | Appearance and color (5th day) | Content (5th day) [%] | Drying loss (5th day) [%] | Related substances (5th day) | Appearance and color (10th day) | Content (10th day) [%] | Drying loss (10th day) [%] | Related substances (10th day) | Stability in the high-temperature test (conclusion) | Compound
White powder | 99.91 | 0.35 | Not detected | White powder | 99.79 | 0.37 | Not detected | White powder | 99.69 | 0.34 | Not detected | stable | Cn1nnc2c(C(N)=O)ncn2c1=O [Form C, Temozolomide]
White powder | 99.94 | 0.41 | Not detected | White powder | 99.63 | 0.38 | Not detected | White powder | 99.31 | 0.34 | Not detected | stable | Cn1nnc2c(C(N)=O)ncn2c1=O [Form A, Temozolomide]
White powder | 99.97 | 0.33 | Not detected | White powder | 99.73 | 0.27 | Not detected | White powder | 99.61 | 0.29 | Not detected | stable | Cn1nnc2c(C(N)=O)ncn2c1=O [Form B, Temozolomide]
